{"source": "patent US8822503B2", "about": "“2-pyridone compounds” (Taisho Pharmaceutical Co., Ltd, priority 2009, dated 2014)", "target": "T1, human liver GK (Homo sapiens, UniProt P35557)", "T1 construct": "GST (glutathione S-transferase) (N); made in house; host or cells: E. coli", "T1 sequence (P35557 1-466 isoform P35557-2)": "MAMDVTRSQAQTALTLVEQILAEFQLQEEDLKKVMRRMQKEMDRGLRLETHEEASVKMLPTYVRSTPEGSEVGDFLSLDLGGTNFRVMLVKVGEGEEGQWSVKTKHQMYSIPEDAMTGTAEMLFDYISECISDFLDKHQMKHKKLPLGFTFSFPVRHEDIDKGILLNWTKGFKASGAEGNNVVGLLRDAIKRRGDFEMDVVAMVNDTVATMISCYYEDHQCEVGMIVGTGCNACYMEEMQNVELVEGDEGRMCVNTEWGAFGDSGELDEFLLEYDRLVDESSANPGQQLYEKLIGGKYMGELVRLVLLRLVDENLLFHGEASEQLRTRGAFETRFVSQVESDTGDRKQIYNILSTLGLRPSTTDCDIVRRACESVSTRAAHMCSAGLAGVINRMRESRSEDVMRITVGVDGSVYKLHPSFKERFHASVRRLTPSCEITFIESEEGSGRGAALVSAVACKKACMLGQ", "assay": "GK activation test", "assay_type": "biochemical", "details": "test compound concentration needed to activate 50% of maximum activation ability; 4 mM 14C-labeled glucose, 2 mM ATP, room temperature, 20 minutes", "description": "The GK activation test for the test compounds was performed by the method of Irwin A. Rose et al. (J. Biol. Chem. 1964 January; 239:12-7) with partial modifications.\nThe enzyme source used in this assay, human liver GK, was expressed in E. coli as a fusion protein with GST (glutathione S-transferase) added to the amino terminus and was purified using Glutathione Sepharose 4B (Amersham Biosciences).\nThe test was carried out using flat-bottom 96-well plates (Sumitomo Bakelite Co., Ltd.). A solution of the test compound in dimethyl sulfoxide (DMSO) and DMSO as a control were added to each well of the plates at a final DMSO concentration of 1%. 25 mM Hepes-KOH (pH=7.1), 25 mM KCl, 2 mM MgCl2, 2 mM ATP, 4 mM ^14C-labeled glucose (Muromachi Yakuhin) and 1 mM DTT (dithiothreitol) were further added at the indicated final concentrations, respectively. Finally, human liver GK was added at 0.24 microgram per well and the reaction was started. The reaction was carried out at room temperature.\nAfter 20 minutes, AG1-X4 resin (BioRad) suspended in 25 mM Hepes-KOH (pH=7.1) was added and the reaction product, labeled glucose 6-phosphate, was allowed to bind thereto. The whole volume was transferred to MultiScreen plates (Millipore) and the resin was washed with water. Thereafter, the labeled glucose 6-phosphate binding to the resin was eluted with a 0.5 M NaCl solution. The labeling activity of the eluted labeled glucose 6-phosphate was measured as an index of GK activity.\nThe GK activity maximally activated by the test compound was described as maximum activation ability, and the test compound concentration needed to activate 50% of that ability was described as EC50.", "data": [{"smiles": "O=C1CCC(CC(c2ccc(C(F)F)cc2)c2ccc(C3CC3)c(=O)[nH]2)N1", "note": "(single isomer, unassigned) [Example 4-340, 3-Cyclopropyl-6-[1-[4-(difluoromethyl)phenyl]-2-(5-oxopyrrolidin-2-yl)ethyl]pyridin-2(1H)-one]", "values": [{"measurement": "EC50", "value": "500 to 3000", "unit": "nM"}]}, {"smiles": "O=C1CCC(CC(c2ccc(C(F)F)cc2)c2ccc(C3CC3)c(=O)[nH]2)N1", "note": "(single isomer, unassigned) [Example 4-341, 3-Cyclopropyl-6-[1-[4-(difluoromethyl)phenyl]-2-(5-oxopyrrolidin-2-yl)ethyl]pyridin-2(1H)-one]", "values": [{"measurement": "EC50", "value": "3000 to 10000", "unit": "nM"}]}, {"smiles": "O=C1CC[C@H](CC(c2ccc(S(=O)(=O)C3CC3)c(Cl)c2)c2ccc(C3CC3)c(=O)[nH]2)N1", "note": "(single isomer, unassigned) [Example 4-342]", "values": [{"measurement": "EC50", "value": "10 to 500", "unit": "nM"}]}, {"smiles": "O=C1CC[C@H](CC(c2ccc(S(=O)(=O)C3CC3)c(Cl)c2)c2ccc(C3CC3)c(=O)[nH]2)N1", "note": "(single isomer, unassigned) [Example 4-343]", "values": [{"measurement": "EC50", "value": "3000 to 10000", "unit": "nM"}]}, {"smiles": "O=C1CC[C@H](CC(c2ccc(OC3CC3)c(Cl)c2)c2ccc(C3CC3)c(=O)[nH]2)N1", "note": "(single isomer, unassigned) [Example 4-344]", "values": [{"measurement": "EC50", "value": "10 to 500", "unit": "nM"}]}, {"smiles": "O=C1CC[C@H](CC(c2ccc(OC3CC3)c(Cl)c2)c2ccc(C3CC3)c(=O)[nH]2)N1", "note": "(single isomer, unassigned) [Example 4-345]", "values": [{"measurement": "EC50", "value": "3000 to 10000", "unit": "nM"}]}, {"smiles": "COc1cc(F)c(C(C[C@H]2CCC(=O)N2)c2ccc(C3CC3)c(=O)[nH]2)cc1Cl", "note": "(single isomer, unassigned) [Example 4-346]", "values": [{"measurement": "EC50", "value": "10 to 500", "unit": "nM"}]}, {"smiles": "COc1cc(F)c(C(C[C@H]2CCC(=O)N2)c2ccc(C3CC3)c(=O)[nH]2)cc1Cl", "note": "(single isomer, unassigned) [Example 4-347]", "values": [{"measurement": "EC50", "value": "3000 to 10000", "unit": "nM"}]}, {"smiles": "CC(C)Oc1ccc(C(C[C@H]2CCC(=O)N2)c2ccc(C3CC3)c(=O)[nH]2)cc1", "note": "(single isomer, unassigned) [Example 4-348]", "values": [{"measurement": "EC50", "value": "500 to 3000", "unit": "nM"}]}, {"smiles": "CC(C)Oc1ccc(C(C[C@H]2CCC(=O)N2)c2ccc(C3CC3)c(=O)[nH]2)cc1F", "note": "(single isomer, unassigned) [Example 4-350]", "values": [{"measurement": "EC50", "value": "10 to 500", "unit": "nM"}]}, {"smiles": "CCCOc1ccc(C(C[C@H]2CCC(=O)N2)c2ccc(C3CC3)c(=O)[nH]2)cc1", "note": "(single isomer, unassigned) [Example 4-352]", "values": [{"measurement": "EC50", "value": "500 to 3000", "unit": "nM"}]}, {"smiles": "CCOc1ccc(C(C[C@H]2CCC(=O)N2)c2ccc(C3CC3)c(=O)[nH]2)cc1F", "note": "(single isomer, unassigned) [Example 4-354]", "values": [{"measurement": "EC50", "value": "500 to 3000", "unit": "nM"}]}, {"smiles": "O=C1CC[C@H](CC(c2ccc(OC(F)F)c(Cl)c2)c2ccc(C3CC3)c(=O)[nH]2)N1", "note": "(single isomer, unassigned) [Example 4-356]", "values": [{"measurement": "EC50", "value": "10 to 500", "unit": "nM"}]}, {"smiles": "O=C1CC[C@H](CC(c2ccc(OC(F)F)c(Cl)c2)c2ccc(C3CC3)c(=O)[nH]2)N1", "note": "(single isomer, unassigned) [Example 4-357]", "values": [{"measurement": "EC50", "value": "3000 to 10000", "unit": "nM"}]}, {"smiles": "CC(C)(C)c1ccc(C(CCN2CCOC2=O)c2ccc(Cl)c(=O)[nH]2)cc1", "note": "(single isomer, unassigned) [Example 6-29, 6-[1-(4-tert-Butylphenyl)-3-(2-oxo-1,3-oxazolidin-3-yl)propyl]-3-chloropyridin-2(1H)-one]", "values": [{"measurement": "EC50", "value": "500 to 3000", "unit": "nM"}]}, {"smiles": "CSc1ccc(/C(=C\\C2CCCC2)c2ccc(Cl)c(=O)[nH]2)cc1", "note": "[Example 1-1, 3-Chloro-6-{(E)-2-Cyclopentyl-1-[4-(methylsulfanyl)phenyl]ethenyl}pyridin-2(1H)-one]", "values": [{"measurement": "EC50", "value": "500 to 3000", "unit": "nM"}]}, {"smiles": "CS(=O)(=O)c1ccc(/C(=C\\C2CCCC2)c2ccc(Cl)c(=O)[nH]2)cc1", "note": "[Example 1-2, 3-Chloro-6-{(E)-2-Cyclopentyl-1-[4-(methylsulfonyl)phenyl]ethenyl}pyridin-2(1H)-one]", "values": [{"measurement": "EC50", "value": "500 to 3000", "unit": "nM"}]}, {"smiles": "CSc1ccc(/C(=C\\C2CCCC2)c2ccc(C(C)C)c(=O)[nH]2)cc1", "note": "[Example 1-3, 6-{(E)-2-Cyclopentyl-1-[4-(methylsulfanyl)phenyl]ethenyl}-3-(propan-2-yl)pyridin-2(1H)-one]", "values": [{"measurement": "EC50", "value": "10 to 500", "unit": "nM"}]}, {"smiles": "CC(C)c1ccc(/C(=C/C2CCCC2)c2ccc(S(C)(=O)=O)cc2)[nH]c1=O", "note": "[Example 1-4, 6-{(E)-2-Cyclopentyl-1-[4-(methylsulfonyl)phenyl]ethenyl}-3-(propan-2-yl)pyridin-2(1H)-one]", "values": [{"measurement": "EC50", "value": "10 to 500", "unit": "nM"}]}, {"smiles": "CSc1ccc(/C(=C\\C2CCCC2)c2ccc(C3CC3)c(=O)[nH]2)cc1", "note": "[Example 1-5, 6-{(E)-2-Cyclopentyl-1-[4-(methylsulfanyl)phenyl]ethenyl}-3-cyclopropylpyridin-2(1H)-one]", "values": [{"measurement": "EC50", "value": "10 to 500", "unit": "nM"}]}, {"smiles": "CS(=O)(=O)c1ccc(/C(=C\\C2CCCC2)c2ccc(C3CC3)c(=O)[nH]2)cc1", "note": "[Example 1-6, 6-{(E)-2-Cyclopentyl-1-[4-(methylsulfonyl)phenyl]ethenyl}-3-cyclopropylpyridin-2(1H)-one]", "values": [{"measurement": "EC50", "value": "10 to 500", "unit": "nM"}]}, {"smiles": "CSc1ccc(/C(=C\\C2CCCC2)c2ccc(C)c(=O)[nH]2)cc1", "note": "[Example 1-7, 6-{(E)-2-Cyclopentyl-1-[4-(methylsulfanyl)phenyl]ethenyl}-3-methylpyridin-2(1H)-one]", "values": [{"measurement": "EC50", "value": "10 to 500", "unit": "nM"}]}, {"smiles": "Cc1ccc(/C(=C/C2CCCC2)c2ccc(S(C)(=O)=O)cc2)[nH]c1=O", "note": "[Example 1-8, 6-{(E)-2-Cyclopentyl-1-[4-(methylsulfonyl)phenyl]ethenyl}-3-methylpyridin-2(1H)-one]", "values": [{"measurement": "EC50", "value": "500 to 3000", "unit": "nM"}]}, {"smiles": "CCSc1ccc(/C(=C\\C2CCCC2)c2ccc(C)c(=O)[nH]2)cc1", "note": "[Example 1-9, 6-{(E)-2-Cyclopentyl-1-[4-(ethylsulfanyl)phenyl]ethenyl}-3-methylpyridin-2(1H)-one]", "values": [{"measurement": "EC50", "value": "10 to 500", "unit": "nM"}]}, {"smiles": "CCS(=O)(=O)c1ccc(/C(=C\\C2CCCC2)c2ccc(C)c(=O)[nH]2)cc1", "note": "[Example 1-10, 6-{(E)-2-Cyclopentyl-1-[4-(ethylsulfonyl)phenyl]ethenyl}-3-methylpyridin-2(1H)-one]", "values": [{"measurement": "EC50", "value": "10 to 500", "unit": "nM"}]}, {"smiles": "Cc1ccc(/C(=C/C2CCCC2)c2ccc(S(=O)(=O)C3CC3)cc2)[nH]c1=O", "note": "[Example 1-11, 6-{(E)-2-Cyclopentyl-1-[4-(cyclopropylsulfonyl)phenyl]ethenyl}-3-methylpyridin-2(1H)-one]", "values": [{"measurement": "EC50", "value": "10 to 500", "unit": "nM"}]}, {"smiles": "CCc1ccc(/C(=C/C2CCCC2)c2ccc(SCCCO)cc2)[nH]c1=O", "note": "[Example 1-12, 6-[(E)-2-Cyclopentyl-1-{4-[(3-hydroxypropyl)sulfanyl]phenyl}ethenyl]-3-ethylpyridin-2(1H)-one]", "values": [{"measurement": "EC50", "value": "10 to 500", "unit": "nM"}]}, {"smiles": "CCc1ccc(/C(=C/C2CCCC2)c2ccc(S(=O)(=O)CCCO)cc2)[nH]c1=O", "note": "[Example 1-13, 6-[(E)-2-Cyclopentyl-1-{4-[(3-hydroxypropyl)sulfonyl]phenyl}ethenyl]-3-ethylpyridin-2(1H)-one]", "values": [{"measurement": "EC50", "value": "10 to 500", "unit": "nM"}]}, {"smiles": "Cc1ccc(/C(=C/C2CCCC2)c2ccc(S(=O)(=O)N(C)C)cc2)[nH]c1=O", "note": "[Example 1-14, 4-[(E)-2-Cyclopentyl-1-(5-methyl-6-oxo-1,6-dihydropyridin-2-yl)ethenyl]-N,N-dimethylbenzenesulfonamide]", "values": [{"measurement": "EC50", "value": "10 to 500", "unit": "nM"}]}, {"smiles": "Cc1ccc(/C(=C/C2CCCC2)c2ccc(S(=O)(=O)N(C)CCO)cc2)[nH]c1=O", "note": "[Example 1-15, 4-[(E)-2-Cyclopentyl-1-(5-methyl-6-oxo-1,6-dihydropyridin-2-yl)ethenyl]-N-(2-hydroxyethyl)-N-methylbenzenesulfonamide]", "values": [{"measurement": "EC50", "value": "10 to 500", "unit": "nM"}]}, {"smiles": "CCc1ccc(/C(=C/C2CCCC2)c2ccc(OC)c(Cl)c2)[nH]c1=O", "note": "[Example 1-16, 6-[(E)-1-(3-Chloro-4-methoxyphenyl)-2-cyclopentylethenyl]-3-ethylpyridin-2(1H)-one]", "values": [{"measurement": "EC50", "value": "10 to 500", "unit": "nM"}]}, {"smiles": "CCOc1ccc(/C(=C\\C2CCCC2)c2ccc(CC)c(=O)[nH]2)cc1Cl", "note": "[Example 1-17, 6-[(E)-1-(3-Chloro-4-ethoxyphenyl)-2-cyclopentylethenyl]-3-ethylpyridin-2(1H)-one]", "values": [{"measurement": "EC50", "value": "10 to 500", "unit": "nM"}]}, {"smiles": "CSc1ccc(/C(=C\\C2CCCC2)c2ccc(C)c(=O)[nH]2)cc1Cl", "note": "[Example 1-18, 6-{(E)-1-[3-Chloro-4-(methylsulfanyl)phenyl]-2-cyclopentylethenyl}-3-methylpyridin-2(1H)-one]", "values": [{"measurement": "EC50", "value": "10 to 500", "unit": "nM"}]}, {"smiles": "Cc1ccc(/C(=C/C2CCCC2)c2ccc(S(C)(=O)=O)c(Cl)c2)[nH]c1=O", "note": "[Example 1-19, 6-{(E)-1-[3-Chloro-4-(methylsulfonyl)phenyl]-2-cyclopentylethenyl}-3-methylpyridin-2(1H)-one]", "values": [{"measurement": "EC50", "value": "10 to 500", "unit": "nM"}]}, {"smiles": "CCc1ccc(/C(=C/C2CCCC2)c2ccc(SC)c(Cl)c2)[nH]c1=O", "note": "[Example 1-20, 6-{(E)-1-[3-Chloro-4-(methylsulfanyl)phenyl]-2-cyclopentylethenyl}-3-ethylpyridin-2(1H)-one]", "values": [{"measurement": "EC50", "value": "10 to 500", "unit": "nM"}]}]}
